Assay results taken from ChEMBL document CHEMBL5625183, “Discovery of a novel dual-target inhibitor of CDK12 and PARP1 that induces synthetic lethality for treatment of triple-negative breast cancer” (Eur J Med Chem, 2023).
Activity calls are given as the source filed them. The rule behind the calls is not given here.

Columns and labels:
[1] = Toxicity in BALB/c mouse xenografted with human MDA-MB-231 cells assessed as morphological changes in liver at 20 to 80 mg/kg, ip administered once daily for 16 days by H and E staining based analysis; assay type: organism-based; settings: in vivo, 384 h, dose 20-80 mg/kg, time 16 day
MDA-MB-436 [2] = test: Upregulation of gamma-H2AX expression in human MDA-MB-436 cells incubated for 24 hrs by Western blot analysis; assay type: functional, cell-based; settings: dose <= 20.0 µM
[3] = Toxicity in BALB/c mouse xenografted with human MDA-MB-231 cells assessed as morphological changes in lung at 20 to 80 mg/kg, ip administered once daily for 16 days by H and E staining based analysis; assay type: organism-based; settings: in vivo, 384 h, dose 20-80 mg/kg, time 16 day
MDA-MB-231 [4] = test: Induction of cell cycle arrest in human MDA-MB-231 cells assessed as accumulation of cells at G1 phase at 5 uM measured after 24 hrs by PI staining based cytometry analysis (reference value: 68.55%); assay type: functional
MDA-MB-468 [5] = test: Induction of apoptosis in human MDA-MB-468 cells assessed as upregulation of Bax expression incubated for 24 hrs; assay type: functional, cell-based; settings: dose 5-20 µM
[6] = MRT (0 to infinity) in Sprague-Dawley rat at 1 mg/kg, iv measured upto 24 hrs by LC-MS/MS analysis; assay type: ADME, organism-based; settings: in vivo
[7] = Metabolic stability in BALB/c mouse liver microsome assessed as half life in presence of NADPH incubated upto 60 mins by LC-MS/MS analysis; assay type: ADME; settings: liver microsomes
MDA-MB-231 [8] = test: Upregulation of gamma-H2AX expression in human MDA-MB-231 cells incubated for 24 hrs by Western blot analysis; assay type: functional, cell-based; settings: dose <= 20.0 µM
MDA-MB-231 [9] = test: Inhibition of cell migration in human MDA-MB-231 cells assessed as downregulation of MMP-2 level by measuring fluorescence intensity at 10 uM incubated for 24 hrs by confocal microscopic analysis; assay type: functional, cell-based
MDA-MB-436 [10] = test: Downregulation of Pol II CTD at ser2 residue expression in human MDA-MB-436 cells incubated for 24 hrs; assay type: functional, cell-based; settings: dose 5-20 µM
MDA-MB-436 [11] = test: Induction of cell cycle arrest in human MDA-MB-436 cells assessed as accumulation of cells at G1 phase at 5 uM measured after 24 hrs by PI staining based cytometry analysis (reference value: 72.04%); assay type: functional
[12] = target: T1, Cyclin-dependent kinase 12 (Homo sapiens, UniProt Q9NYV4); test: Inhibition of CDK12 (unknown origin) at 20 uM in presence of ATP by kinase-glo plus luminescent assay relative to control
T1 sequence (Q9NYV4 whole entry, looked up): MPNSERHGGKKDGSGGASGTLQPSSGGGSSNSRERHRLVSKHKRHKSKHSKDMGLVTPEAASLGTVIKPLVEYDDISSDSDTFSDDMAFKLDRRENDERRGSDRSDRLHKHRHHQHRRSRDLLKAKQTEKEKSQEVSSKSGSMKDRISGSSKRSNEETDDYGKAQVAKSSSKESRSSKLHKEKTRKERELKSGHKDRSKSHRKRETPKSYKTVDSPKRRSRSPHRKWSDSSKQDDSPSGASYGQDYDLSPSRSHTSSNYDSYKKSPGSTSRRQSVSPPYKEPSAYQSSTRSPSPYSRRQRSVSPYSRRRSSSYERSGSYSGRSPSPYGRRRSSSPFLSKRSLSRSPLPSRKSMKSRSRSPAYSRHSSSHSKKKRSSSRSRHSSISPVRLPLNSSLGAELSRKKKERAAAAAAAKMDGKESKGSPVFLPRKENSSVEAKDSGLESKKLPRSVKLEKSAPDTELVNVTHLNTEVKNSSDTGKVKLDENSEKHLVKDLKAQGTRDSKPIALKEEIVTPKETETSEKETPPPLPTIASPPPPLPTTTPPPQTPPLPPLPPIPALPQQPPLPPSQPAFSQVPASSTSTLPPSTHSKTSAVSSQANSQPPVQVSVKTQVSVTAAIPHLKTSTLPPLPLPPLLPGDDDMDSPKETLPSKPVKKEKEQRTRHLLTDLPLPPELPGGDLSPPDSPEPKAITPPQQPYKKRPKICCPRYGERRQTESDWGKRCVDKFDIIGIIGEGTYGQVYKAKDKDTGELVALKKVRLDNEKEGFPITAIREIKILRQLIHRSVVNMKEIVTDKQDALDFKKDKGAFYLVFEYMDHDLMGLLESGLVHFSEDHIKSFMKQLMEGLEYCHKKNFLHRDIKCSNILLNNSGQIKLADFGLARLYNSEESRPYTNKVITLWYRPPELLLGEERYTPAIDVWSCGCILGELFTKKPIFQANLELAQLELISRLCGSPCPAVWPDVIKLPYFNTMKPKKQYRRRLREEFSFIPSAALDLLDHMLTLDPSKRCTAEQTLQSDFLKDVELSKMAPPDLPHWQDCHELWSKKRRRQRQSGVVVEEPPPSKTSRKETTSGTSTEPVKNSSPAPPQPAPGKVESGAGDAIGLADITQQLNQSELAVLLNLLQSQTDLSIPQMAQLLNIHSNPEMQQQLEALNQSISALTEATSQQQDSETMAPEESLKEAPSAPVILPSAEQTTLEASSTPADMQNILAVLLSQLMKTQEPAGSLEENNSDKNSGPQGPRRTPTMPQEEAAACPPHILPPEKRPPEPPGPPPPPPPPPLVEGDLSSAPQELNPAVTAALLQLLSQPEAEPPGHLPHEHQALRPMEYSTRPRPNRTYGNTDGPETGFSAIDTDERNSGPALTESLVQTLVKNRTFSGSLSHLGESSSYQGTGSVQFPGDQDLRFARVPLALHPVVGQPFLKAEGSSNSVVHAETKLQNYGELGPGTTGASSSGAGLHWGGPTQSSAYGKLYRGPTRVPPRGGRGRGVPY

[13] = target: Cyclin-dependent kinase 2 (Homo sapiens, UniProt P24941); test: Inhibition of CDK2 (unknown origin) at 1 uM relative to control
MDA-MB-436 [14] = test: Induction of cell cycle arrest in human MDA-MB-436 cells assessed as accumulation of cells at G2 phase at 5 uM measured after 24 hrs by PI staining based cytometry analysis (reference value: 2.54%); assay type: functional
MDA-MB-231 [15] = test: Antiproliferative activity against human MDA-MB-231 cells assessed as inhibition of cell growth incubated for 24 hrs by MTT assay; assay type: functional, cell-based; settings: MDA-MB-231, 24 h
MDA-MB-231 [16] = test: Induction of apoptosis in human MDA-MB-231 cells assessed as upregulation of cleaved-caspase 3 expression incubated for 24 hrs; assay type: functional, cell-based; settings: dose 5-20 µM
[17] = target: T1, Cyclin-dependent kinase 12; test: Binding affinity to CDK12 in human MDA-MB-436 cells assessed as increase in protein thermal stabilization at 10 uM incubated for 6 hrs by CETSA based Western blot analysis; assay type: cell-based
MDA-MB-436 [18] = test: Antiproliferative activity against human MDA-MB-436 cells transfected with CDK12 M816A and PARP1 G863A mutant incubated for 24 hrs by MTT assay; assay type: functional, cell-based
[19] = Tmax in Sprague-Dawley rat at 10 mg/kg, po measured upto 24 hrs by LC-MS/MS analysis; assay type: ADME, organism-based; settings: in vivo
MDA-MB-231 [20] = test: Inhibition of cell migration in human MDA-MB-231 cells assessed as wound closure at 10 uM incubated for 24 hrs by wound healing assay; assay type: functional, cell-based
MDA-MB-231 [21] = test: Antitumor activity against human MDA-MB-231 cells xenografted in ip dosed BALB/c mouse assessed as reduction in tumor growth administered once daily for 16 days; assay type: functional, organism-based; settings: dose 20-80 mg/kg, time 16.0 day
MDA-MB-231 [22] = test: Inhibition of cell migration in human MDA-MB-231 cells at 10 uM incubated for 24 hrs by transwell assay; assay type: functional, cell-based
Mus musculus = test: In-vivo induction of DNA damage in ip dosed BALB/c mouse assessed as upregulation of gamma-H2AX level in tumor administered once daily for 16 days by Western blot analysis; assay type: functional, organism-based; settings: dose 20-80 mg/kg, time 16.0 day
MDA-MB-231 [23] = test: Antiproliferative activity against human MDA-MB-231 cells assessed as decrease in number of colony formation at 10 uM measured after 24 days by crystal violet staining based analysis; assay type: functional, cell-based; settings: time 24.0 day
MDA-MB-231 [24] = test: Induction of cell cycle arrest in human MDA-MB-231 cells assessed as accumulation of cells at S phase at 20 uM measured after 24 hrs by PI staining based cytometry analysis (reference value: 23.01 %); assay type: functional
MDA-MB-231 [25] = test: Induction of cell cycle arrest in human MDA-MB-231 cells assessed as accumulation of cells at G1 phase at 20 uM measured after 24 hrs by PI staining based cytometry analysis (reference value: 68.55%); assay type: functional
[26] = target: AP2-associated protein kinase 1 (Homo sapiens) (UniProt Q2M2I8); test: Inhibition of AAK1 (unknown origin) at 1 uM relative to control
AP2-associated protein kinase 1 (Homo sapiens), sequence (Q2M2I8 whole entry, looked up): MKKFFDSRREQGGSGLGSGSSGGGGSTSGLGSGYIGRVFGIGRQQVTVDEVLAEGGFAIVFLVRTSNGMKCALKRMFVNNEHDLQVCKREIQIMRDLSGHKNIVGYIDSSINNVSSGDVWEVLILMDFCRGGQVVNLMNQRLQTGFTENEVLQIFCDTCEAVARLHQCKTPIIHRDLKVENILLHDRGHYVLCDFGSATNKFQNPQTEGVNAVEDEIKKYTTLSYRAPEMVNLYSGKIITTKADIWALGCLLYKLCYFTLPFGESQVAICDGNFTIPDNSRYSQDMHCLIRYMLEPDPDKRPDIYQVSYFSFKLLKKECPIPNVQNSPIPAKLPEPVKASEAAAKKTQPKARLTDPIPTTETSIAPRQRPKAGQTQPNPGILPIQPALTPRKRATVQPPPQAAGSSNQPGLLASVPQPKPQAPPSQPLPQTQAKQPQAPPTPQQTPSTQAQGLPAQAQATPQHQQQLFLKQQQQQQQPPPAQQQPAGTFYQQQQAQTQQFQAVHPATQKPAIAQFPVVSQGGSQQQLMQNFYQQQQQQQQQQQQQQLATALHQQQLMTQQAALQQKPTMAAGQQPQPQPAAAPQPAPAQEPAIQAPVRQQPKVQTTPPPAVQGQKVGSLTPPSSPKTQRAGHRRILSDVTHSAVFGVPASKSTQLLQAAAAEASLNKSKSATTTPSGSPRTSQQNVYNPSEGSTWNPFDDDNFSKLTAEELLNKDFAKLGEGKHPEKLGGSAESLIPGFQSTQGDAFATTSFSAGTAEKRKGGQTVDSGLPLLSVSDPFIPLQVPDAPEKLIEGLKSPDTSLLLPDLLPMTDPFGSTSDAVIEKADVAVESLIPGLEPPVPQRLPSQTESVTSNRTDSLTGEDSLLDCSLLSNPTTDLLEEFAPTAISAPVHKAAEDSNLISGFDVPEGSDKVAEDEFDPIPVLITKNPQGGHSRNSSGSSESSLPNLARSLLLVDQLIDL

MDA-MB-231 [27] = test: Antiproliferative activity against human MDA-MB-231 cells transfected with wild type CDK12 and PARP1 G863A mutant incubated for 24 hrs by MTT assay; assay type: functional, cell-based
[28] = AUC (0 to t) in Sprague-Dawley rat at 1 mg/kg, iv measured upto 24 hrs by LC-MS/MS analysis; assay type: ADME, organism-based; settings: in vivo
MDA-MB-231 [29] = test: Induction of cell cycle arrest in human MDA-MB-231 cells assessed as accumulation of cells at G2 phase at 20 uM measured after 24 hrs by PI staining based cytometry analysis (reference value: 8.44 %); assay type: functional
MDA-MB-231 [30] = test: Induction of cell cycle arrest in human MDA-MB-231 cells assessed as accumulation of cells at G1 phase at 10 uM measured after 24 hrs by PI staining based cytometry analysis (reference value: 68.55%); assay type: functional
[31] = Toxicity in BALB/c mouse xenografted with human MDA-MB-231 cells assessed as morphological changes in heart at 20 to 80 mg/kg, ip administered once daily for 16 days by H and E staining based analysis; assay type: organism-based; settings: in vivo, 384 h, dose 20-80 mg/kg, time 16 day
MDA-MB-436 [32] = test: Induction of cell cycle arrest in human MDA-MB-436 cells assessed as accumulation of cells at G2 phase at 20 uM measured after 24 hrs by PI staining based cytometry analysis (reference value: 2.54%); assay type: functional
MDA-MB-468 [33] = test: Induction of apoptosis in human MDA-MB-468 cells assessed as upregulation of cleaved-caspase 3 expression incubated for 24 hrs; assay type: functional, cell-based; settings: dose 5-20 µM
[34] = Half life in Sprague-Dawley rat 10 mg/kg, po measured upto 24 hrs by LC-MS/MS analysis; assay type: ADME, organism-based; settings: in vivo
[35] = target: T1, Cyclin-dependent kinase 12; test: Inhibition of CDK12 in human MDA-MB-436 cells assessed as effect on Pol II CTD at ser5 residue phosphorylation incubated for 24 hrs; assay type: cell-based; settings: dose 5-20 µM

NC(=O)c1cccc2[nH]c(NC(=O)c3cccc(C(=O)N4CCC(Nc5ncc(I)cn5)CC4)c3)nc12
Activity [1]: Non-Toxic | Activity (MDA-MB-436 [2]): Dose-Dependent Effect | Activity [3]: Non-Toxic | Activity (MDA-MB-231 [4]): 63.3% | Activity (MDA-MB-468 [5]): Dose-Dependent Effect | MRT inf [6]: 1.87 h | half-life [7]: 1.88 h | Activity (MDA-MB-231 [8]): Dose-Dependent Effect | inhibition (MDA-MB-231 [9]): Active | Activity (MDA-MB-436 [10]): Dose-Dependent Effect | Activity (MDA-MB-436 [11]): 69.11% | inhibition [12]: Active | inhibition [13]: > 60% | Activity (MDA-MB-436 [14]): 4.39% | IC50 (MDA-MB-231 [15]): 8.5 µM | Activity (MDA-MB-231 [16]): Dose-Dependent Effect | Activity [17]: Active | Activity (MDA-MB-436 [18]): Active | Tmax [19]: 1.58 h | inhibition (MDA-MB-231 [20]): Active | Activity (MDA-MB-231 [21]): Dose-Dependent Effect | inhibition (MDA-MB-231 [22]): Active | Activity (Mus musculus): Active | Activity (MDA-MB-231 [23]): Active | Activity (MDA-MB-231 [24]): 17.32% | Activity (MDA-MB-231 [25]): 59.26% | inhibition [26]: > 60% | Activity (MDA-MB-231 [27]): Active | AUC(0-t) at 24 h [28]: 1250 ng·h/mL | Activity (MDA-MB-231 [29]): 23.42% | Activity (MDA-MB-231 [30]): 61.71% | Activity [31]: Non-Toxic | Activity (MDA-MB-436 [32]): 15.05% | Activity (MDA-MB-468 [33]): Dose-Dependent Effect | half-life [34]: 2.39 h | inhibition [35]: Dose-Dependent Effect
